Laboratory results from patent US20260042755A1, “GPR6 INVERSE AGONISTS” (MapLight Therapeutics, Inc., priority 2022, published 2026).
pIC50: −log10 of the molar value.

Assays:
GPR6 = target: T1, GPR6 (Homo sapiens, UniProt P46095); assay: GPR6 antagonist functional cAMP assay (LANCE Ultra cAMP TR-FRET, CHO cells stably expressing GPR6); format: cell-based
T1 construct: expressed in transfected cells; host or cells: CHO cells
In short: (§1)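 Cells in Krebs-Ringer buffer with 0.1% BSA and 150 μM Ro 20-1724 PDE inhibitor were exposed to compounds for 45 min at 37 °C (0.1% DMSO). cAMP was read by TR-FRET at 665 nm; IC50s came from 4-parameter fits normalized to DMSO and reference compound.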

GPR3 = target: T2, GPR3 (Homo sapiens, UniProt P46089); assay: GPR3 antagonist functional cAMP assay (LANCE Ultra cAMP TR-FRET, CHO cells stably expressing GPR3); format: cell-based
T2 construct: expressed in transfected cells; host or cells: CHO cells
T2 sequence (P46089 whole entry, species assumed): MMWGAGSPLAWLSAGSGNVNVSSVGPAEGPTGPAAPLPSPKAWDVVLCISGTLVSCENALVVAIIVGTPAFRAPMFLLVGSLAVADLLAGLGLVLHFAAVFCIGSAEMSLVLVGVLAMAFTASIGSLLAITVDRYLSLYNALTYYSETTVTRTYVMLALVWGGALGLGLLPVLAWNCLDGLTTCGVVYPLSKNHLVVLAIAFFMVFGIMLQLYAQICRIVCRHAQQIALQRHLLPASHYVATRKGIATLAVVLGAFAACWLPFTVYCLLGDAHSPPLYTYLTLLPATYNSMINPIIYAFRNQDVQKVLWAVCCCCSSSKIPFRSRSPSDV
In short: as §1

[1] = CHO cells stably expressing GPR6, cAMP assay (Example 24)
[2] = CHO cells stably expressing GPR3, cAMP assay (Example 24)
[3] = procedure as described in Example 24
[4] = CHO cells stably expressing GPR6, cAMP assay
[5] = CHO cells stably expressing GPR3, cAMP assay

T1 sequence (P46095 whole entry): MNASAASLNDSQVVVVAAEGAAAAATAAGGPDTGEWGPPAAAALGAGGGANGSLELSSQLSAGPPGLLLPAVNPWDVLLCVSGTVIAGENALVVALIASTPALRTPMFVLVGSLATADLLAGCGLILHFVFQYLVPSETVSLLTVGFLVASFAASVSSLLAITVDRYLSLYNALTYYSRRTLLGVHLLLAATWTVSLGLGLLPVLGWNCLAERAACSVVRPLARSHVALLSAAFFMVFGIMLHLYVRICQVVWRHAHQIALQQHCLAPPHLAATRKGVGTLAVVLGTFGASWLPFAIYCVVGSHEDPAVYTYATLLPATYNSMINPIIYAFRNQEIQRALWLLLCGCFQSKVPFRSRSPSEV

| SMILES | pIC50 (GPR6; [1]) | pIC50 (GPR3; [2]) | pIC50 (GPR6; procedure of Example 24) | pIC50 (GPR3; procedure of Example 24) | also measured |
| --- | --- | --- | --- | --- | --- |
| CCc1nccc(-c2nc3c(nc2N2CCC(Oc4ccc(F)cc4F)CC2)CCN(C(C)=O)C3)n1 [Compound 479, 1-{2-[4-(2,4-difluorophenoxy)piperidin-1-yl]-3-(2-ethylpyrimidin-4-yl)-5H,6H,7H,8H-pyrido[3,4-b]pyrazin-6-yl}ethan-1-one] | 4.52 to 6.00 | 4.52 to 6.00 | – | – | – |
| Cn1cc(-c2nc3cc([C@@](C)(O)C(C)(C)O)ncc3nc2N2CCN(Cc3ccc(F)cc3F)CC2)cn1 (single isomer, unassigned) [Compound 772] | – | – | 6.00 to 7.00 | 6.00 to 7.00 | – |
| Cn1cc(-c2nc3cnc(N4CCOCC4)cc3nc2N2CCC(Oc3ccc(F)cc3F)CC2)cn1 [Compound 449, 4-{2-[4-(2,4-difluorophenoxy)piperidin-1-yl]-3-(1-methyl-1H-pyrazol-4-yl)pyrido[3,4-b]pyrazin-7-yl}morpholine] | 4.52 to 6.00 | 4.52 to 6.00 | – | – | – |
| C[C@@H]1CN(Cc2ccc(F)cc2F)CCN1c1nc2ccncc2nc1-c1cnn(C)c1 (single isomer, unassigned) [Compound 224] | 4.52 to 6.00 | 4.52 to 6.00 | – | – | – |
| Cn1cc(-c2nc3cnc([C@@H](O)C(C)(C)O)cc3nc2N2CCC(=Cc3ccc(F)cc3F)CC2)cn1 (single isomer, unassigned) [Compound 719] | – | – | > 7.00 | 4.52 to 6.00 | – |
| CC(=O)N1CCc2nc(N3CCC(Oc4ccc(F)cc4F)CC3)c(-c3cnn(C)c3)nc2C1 [Compound 44, 1-{2-[4-(2,4-difluorophenoxy)piperidin-1-yl]-3-(1-methyl-1H-pyrazol-4-yl)-5H,6H,7H,8H-pyrido[3,4-b]pyrazin-6-yl}ethan-1-one] | – | – | – | – | pIC50 (GPR6; [3]): 6.00 to 7.00; pIC50 (GPR3; [3]): 4.52 to 6.00 |
| CC(C)(O)[C@H](O)c1cc2nc(N3CCN(Cc4ccccc4F)CC3)c(-c3cnn(C(F)F)c3)nc2cn1 (single isomer, unassigned) [Compound 612] | – | – | 6.00 to 7.00 | 4.52 to 6.00 | – |
| CCn1cc(-c2nc3c(nc2N2CCC(Oc4ccc(F)cc4F)CC2)CCN(C(=O)C(C)(O)CO)C3)cn1 (centres unmarked) [Compound 519, 1-{2-[4-(2,4-difluorophenoxy)-1-piperidyl]-3-(1-ethyl-4-pyrazolyl)-5,6,7,8-tetrahydro-1,4,6-triaza-6-naphthyl}-2,3-dihydroxy-2-methyl-1-propanone] | – | – | – | – | pIC50 (GPR6; [4]): 6.00 to 7.00; pIC50 (GPR3; [5]): 4.52 to 6.00 |
| CC(C)(O)C(C)(O)c1cc2nc(-c3cnn(C(F)F)c3)c(N3CCN(Cc4ccc(F)cc4F)CC3)nc2cn1 (single isomer, unassigned) [Compound 663] | – | – | > 7.00 | 4.52 to 6.00 | – |
| CC(C)(O)Cc1cc2nc(-c3cnn(C4CC4)c3)c(N3CCC(Oc4ccc(F)cc4F)CC3)nc2cn1 [Compound 704, 1-{2-(1-cyclopropyl-4-pyrazolyl)-3-[4-(2,4-difluorophenoxy)-1-piperidyl]-1,4,6-triaza-7-naphthyl}-2-methyl-2-propanol] | – | – | 6.00 to 7.00 | 4.52 to 6.00 | – |
| CC(C)(O)C(=O)c1cc2nc(N3CCC(Oc4ccc(F)cc4F)CC3)c(-c3cnn(C4CC4)c3)nc2cn1 [Compound 625, 1-{3-(1-cyclopropyl-4-pyrazolyl)-2-[4-(2,4-difluorophenoxy)-1-piperidyl]-1,4,6-triaza-7-naphthyl}-2-hydroxy-2-methyl-1-propanone] | – | – | 6.00 to 7.00 | 4.52 to 6.00 | – |
| O=S(=O)(C1COC1)N1CCc2nc(N3CCC(Oc4ccc(F)cc4F)CC3)c(-c3cn[nH]c3)nc2C1 [Compound 207, 4-(2,4-difluorophenoxy)-1-[6-(oxetane-3-sulfonyl)-3-(1H-pyrazol-4-yl)-5H,6H,7H,8H-pyrido[3,4-b]pyrazin-2-yl]piperidine] | 4.52 to 6.00 | 4.52 to 6.00 | – | – | – |
| CC(C)(O)C(O)c1cc2nc(-c3cnn(C4CC4)c3)c(N3CCN(Cc4ccc(F)cc4F)CC3)nc2cn1 (single isomer, unassigned) [Compound 600] | – | – | – | – | pIC50 (GPR6; [4]): > 7.00; pIC50 (GPR3; [5]): 6.00 to 7.00 |
